This is an account of results in patent US8258295B2, “Triazine derivatives, compositions containing such derivatives, and methods of treatment of cancer and autoimmune diseases using such derivatives” (Prometic Biosciences Inc., priority 2007, dated 2012).

One may read the inhibition as the drop in the measured response relative to a control, in per cent. As usually defined, the IC50 is the concentration that inhibits the measured activity by half.

Like-named read-outs stand apart in the source and are kept apart here.

The subject of assay [1] is adjuvant-induced arthritis (AIA). In words: Freund's adjuvant-induced arthritis (AIA) in Lewis rats. It counts as in vivo. To be noted: female Lewis rats, oral administration; FIG. 18. As to the method: AIA was induced in female Lewis rats by the injection of lyophilized Mycobacterium butyricum suspended in mineral oil into the footpad. The development of arthritis was monitored over a 3-week period post-adjuvant injection. Inflammation peaks at day 3 following the adjuvant administration. Immune activation appears around day 10 to day 16. Compounds were orally administered from day −3 to day 21. Body weight was recorded. The arthritis index, which is a measure of inflammation (edema), redness, and stiffness of the articulations, was used to monitor the development of the disease. The degree of arthritis was determined by measuring two perpendicular diameters of the ankles in the mediolateral and dorsoventral planes using a caliper. Joint circumference in millimeters is then calculated using a geometric formula.

The test system of assay [2] is LPS-induced inflammation in the rat air-pouch model. Put plainly: LPS-induced inflammation in rat air-pouch model. It counts as in vivo, rats. To be noted: IV, pouch exudate. The text has this: LPS-induced inflammation in the rat air-pouch model is believed to mimic the pathological process occurring in joint diseases such as arthritis. This is because the connective tissues formed along the air pouch are similar to those found in chronic joint diseases. LPS-induced inflammation and chronic joint diseases share other features, including markedly elevated PGE2, neutrophil infiltration, cytokine formation, and tissue damage.
An air cavity was produced at day −6 by subcutaneous injection of 20 ml of sterile air into the intrascapular area of the back of male Lewis rats (175 to 200 g). An additional 10 ml of air was injected into the cavity at day −3 to keep the space open. At day 0, compounds were administered intravenously and one hour later lipopolysaccharide (LPS: 2.5 ml of 2 μg/ml in PBS) was injected into the pouch to produce an inflammatory reaction. […] The pouch fluid was collected. The volume of exudates was measured and the number of leukocytes present in the exudates was determined with a Coulter counter. The differential count was determined by Wright-Giemsa staining. PGE2, LTB4, MCP, and TNFα were determined in the pouch exudates by specific ELISAs.

Assay [3] concerns oxazolone-induced delayed-type hypersensitivity (DTH). Put plainly: Oxazolone-induced delayed-type hypersensitivity (DTH) in mice. It counts as in vivo. As for the experimental part:
Compounds were tested for their ability to treat oxazolone-induced delayed-type hypersensitivity (DTH) in mice. […] On day 0, day 1, and day 2, mice were treated by intravenous (IV) or oral (PO) administrations of the vehicle (control) or methotrexate (MTX; positive control/IV) or hydrocortisone (positive control/PO) or the compound at concentration lower than or equal to 50 mg/kg or as specified. Mice were challenged with an application of 50 μl of oxazolone on the surface of the right ear (first challenge, day 3; second challenge, day 10). Ear thickness was measured on day 4 to day 7, and on day 11 to 14. Redness and crust formation was also observed. Mice were sacrificed on day 14. TDTH (CD4) cells play an important role in regulating the intensity of the DTH response. Compounds may exert an inhibitory influence on the DTH response through its inhibition of T-cell activation and DNA, RNA, and/or protein synthesis.

For assay [4], the target named is TNFα (Homo sapiens, UniProt P01375). In words: TNFα-induced apoptosis in WEHI-13VAR cell line. It counts as cell-based. To be noted: for inhibition at 10 µM: 1 × 10^−5 M; for inhibition at 20 µM: 2 × 10^−5 M; for inhibition at 40 µM: 4 × 10^−5 M; for inhibition at 5 µM: 5 × 10^−6 M. As to the method:
Effect of compounds on TNFα-induced apoptosis was measured by a standard biological assay using WEHI-13VAR cells. These cells undergo apoptosis when they are incubated in the presence of TNFα and actinomycin D. 2×10^4 WEHI-13VAR cells were incubated in RPMI supplemented with 1% sodium pyruvate and 10% FBS, overnight at 37° C. for cell adherence. The cells were then cultured in the presence of 1 μg/ml of actimomycin D ([…]) and 0.04 nM TNFα with or without compounds at 37° C. After 16 hr to 24 hr, 50 μl of a solution of 2 mg/ml of MIT was added to each well and the plate was then incubated for 4 hr at 37° C. Only viable cells metabolize MTT to form formazan salt, which is detectable by the measurement of absorbance at 570 nm. After the incubation, the plate was inverted to remove medium and dead cells. 150 μDMSO was added to each well to stop the reaction and solubilize the formazan salt. Optical density was read on a Bio-Tek EL 800 UV microplate reader. A decrease in the optical density is direct evidence of cell apoptosis induced by TNFα. Compounds were also compared to the activity of an anti-TNFα neutralizing antibody.

Assay [5] has as its system P815 murine mastocytoma cell. In words: MTT cytotoxicity on P815. It counts as cell-based. The settings on record: Mus musculus. As to the method:
(§1) This assay was performed to determine the effect of compounds of the present invention on cell cytotoxicity. Cells were incubated in presence or absence of compounds in their respective conditioned media. After 24 hr or 72 hr incubation, 50 μl of 3-(4,5-dimethyl-2-thiazyl)-2,5-diphenyl-2H-tetrazolium bromide (MTT; 2 mg/ml) was added and further incubated for 4 hr. The supernatant was discarded and 100 μl of dimethylsulfoxide (DMSO) was added. Absorbance was read at 570 nm with a TecanSunrise ELISA plate reader. The control group consisted of cells without compounds and is referred to as 100% of viable cells. IC50 was determined using Prism software.
(§2) All compounds have weak effect on cell cytotoxicity. The predictive utility of cell based cytotoxicity assays to assess the potential in vivo anticancer activity of compounds with selected cancer cell lines is well established in the art and the use of whole cells, instead of isolated protein receptors or enzymes, provides a more reliable determination of activity. See, for example, Paull et al. (J. Nat'l Cancer Inst. 81:1088-1092, 1989); Monks et al. (J. Nat'l Cancer Inst. 83:757-766, 1991); Bandes et al. (J. Nat'l Cancer Inst. 86:770-775, 1994); and Kamate et al. (Int'l J. Cancer 100:571-579, 2002).

The subject of assay [6] is PC-3 human prostate carcinoma cell. Put plainly: MTT cytotoxicity on PC-3. It counts as cell-based. As to the method:
as §1, §2

Assay [7] relates to HUVEC (human umbilical vein endothelial cell). In words: MTT cytotoxicity on HUVEC. It counts as cell-based. As for the experimental part:
as §1, §2

In assay [8] the test system is NHDF (normal human dermal fibroblast). Put plainly: MTT cytotoxicity on NHDF. It counts as cell-based. As to the method:
as §1, §2

Where [9] appears, read: 24 hr culture, read-out: IC50 of 24-hour culture P815.
Where [10] appears, read: 72 hr culture, read-out: IC50 of 72-hour culture P815.
The mark [11] stands for this setting: 24 hr culture, read-out: IC50 of 24-hour culture PC-3.
Where [12] appears, read: 72 hr culture, read-out: IC50 of 72-hour culture PC-3.

TNFα, sequence (P01375 77-233 limits assumed, species assumed): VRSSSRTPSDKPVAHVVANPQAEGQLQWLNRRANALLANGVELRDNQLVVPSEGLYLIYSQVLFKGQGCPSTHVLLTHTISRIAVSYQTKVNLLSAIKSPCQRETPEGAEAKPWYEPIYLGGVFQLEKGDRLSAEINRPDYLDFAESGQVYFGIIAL

`COc1ccc2c(c1)c(CC(=O)O)c(C)n2C(=O)c1ccc(Cl)cc1` [indomethacin, reference compound]: in assay [1], the “severity of arthritis (inflammatory index)” value is given as “significant reduction in the severity of arthritis”. In addition, the “PGE2 production induced by LPS” value in assay [2] (twelve hours after induction, FIG. 21B) is “significant inhibition”; in assay [2] (two hours after induction, FIG. 20B), “significant inhibition”. For the same molecule, the “TNFα production induced by LPS” value in assay [2] (twelve hours post-LPS induction, FIG. 21A) is reported as “weak inhibition”; in assay [2] (two hours after induction, FIG. 20A), “increase the concentration of TNFα”. Further, the “LTB4 production induced by LPS” value in assay [2] (two hours after induction, FIG. 20C) is “did not affect the production of LTB4”. Also, in assay [2] (two hours after induction, FIG. 20D), the “MCP-1 production induced by LPS” value is “significant increase”.

With `CN(C)S(=O)(=O)c1ccc(CCNc2nc(NCCCCCN)nc(Nc3ccc(F)cc3)n2)cc1` [Compound X], in assay [3] (IV 5 mg/kg, first challenge of oxazolone), the “inflammation (ear thickness) after DTH” value is “significant reduction of the inflammation”. Also, in assay [4], the inhibition at 10 µM was determined as 44.4%, the inhibition at 20 µM was 79.9%, the inhibition at 40 µM is 53.9% and the inhibition at 5 µM was 19.4%.

Turning to `NCCCCCNc1nc(NCC(O)c2ccc(O)cc2)nc(Nc2ccc(F)cc2)n1` (stereo not shown) [Compound XI], the “inflammation (ear thickness) after DTH” value in assay [3] (IV 25 mg/kg, first challenge of oxazolone) is given as “significant reduction of the inflammation”. In addition, in assay [4], the inhibition at 10 µM was 14.6%, the inhibition at 20 µM amounted to 23.7%, the inhibition at 40 µM was 35% and the inhibition at 5 µM is 9.9%.

For `CN(C)S(=O)(=O)c1ccc(CCNc2nc(NCCCCCN)nc(Nc3cccc(F)c3)n2)cc1` [Compound III], the “inflammation (ear thickness) after DTH” value is “significant reduction of the inflammation” in assay [3] (oral 50 mg/kg, first challenge of oxazolone) and “significant reduction of the inflammation” in assay [3] (oral 50 mg/kg, second challenge of oxazolone). Moreover, the inhibition at 10 µM in assay [4] stood at 52%. Besides, the inhibition at 20 µM in assay [4] was determined as 89.7%. Further, the inhibition at 5 µM in assay [4] was determined as 20.4%. Moreover, the half-inhibitory concentration (IC50) in assay [5] (setting [9]) amounted to 13.6 µM; in assay [5] (setting [10]) it was 5.5 µM; in assay [6] (setting [11]) it was 30.1 µM; in assay [6] (setting [12]), 27.6 µM.

As to `NCCCCCNc1nc(NCCc2ccc(N)cc2)nc(Nc2ccc(F)cc2)n1` [Compound IV], in assay [3] (oral 50 mg/kg, FIG. 15), the “inflammation (ear thickness) after DTH” value was “significant reduction of the inflammation”. Besides, the inhibition at 10 µM in assay [4] was found to be 13.1%. Also, the inhibition at 20 µM in assay [4] is 31.6%. The inhibition at 40 µM in assay [4] turned out to be 47.2%. Moreover, the inhibition at 5 µM in assay [4] came out at 3.7%. Also, the IC50 in assay [7] (24 hr culture, read-out: IC50 of 24-hour culture HUVEC) was 51.3 µM; in assay [7] (72 hr culture, read-out: IC50 of 72-hour culture HUVEC) it was greater than 100 µM; in assay [5] (setting [9]), 33 µM; in assay [8] (24 hr culture, read-out: IC50 of 24-hour culture NHDF) it was 82.1 µM; in assay [8] (72 hr culture, read-out: IC50 of 72-hour culture NHDF), 42.5 µM; in assay [6] (setting [11]), 56.6 µM. Further, the IC50 in assay [6] (setting [12]) is 51.9 µM.

On to `NCCCCNc1nc(NCCc2ccc(S(N)(=O)=O)cc2)nc(Nc2cccc(F)c2)n1` [Compound IX], for which, in assay [4], the inhibition at 10 µM is 29.8%, the inhibition at 20 µM is 46.7%, the inhibition at 40 µM is 65.5% and the inhibition at 5 µM is 13.2%.

`NCCCCCNc1nc(NCCc2ccc(C(N)=O)cc2)nc(Nc2cccc(F)c2)n1` [Compound VI]: in assay [4], the inhibition at 10 µM is 54.8%, the inhibition at 20 µM was 74.1%, the inhibition at 40 µM worked out at 89.5% and the inhibition at 5 µM stood at 28.2%.

Take `NCCCCCNc1nc(Nc2cccc(F)c2)nc(-c2cccc(F)c2)n1` [XII]: the half-maximal inhibitory concentration (IC50) in assay [5] (setting [10]) was 21.7 µM; in assay [6] (setting [12]), 9 µM.

For the molecule `NCCCCCNc1nc(Nc2ccc(S(N)(=O)=O)cc2)nc(Nc2cccc(F)c2)n1` [Compound VIII], in assay [4], the inhibition at 10 µM is 35.6%, the inhibition at 20 µM stood at 48.1%, the inhibition at 40 µM stood at 55.6% and the inhibition at 5 µM was 17%. The IC50 in assay [5] (setting [9]) stood at 10.9 µM. In addition, the IC50 in assay [5] (setting [10]) turned out to be 2.9 µM. Also, the IC50 in assay [6] (setting [11]) worked out at 31 µM. The IC50 in assay [6] (setting [12]) came to 5.2 µM.

Take `NCCCCCNc1nc(NCCc2ccc(S(N)(=O)=O)cc2)nc(Nc2ccc(F)cc2)n1` [Compound VII]: in assay [4], the inhibition at 10 µM was 65.8%, the inhibition at 20 µM was determined as 99.9%, the inhibition at 40 µM was determined as 118% and the inhibition at 5 µM was 30%. Moreover, the half-inhibitory concentration (IC50) in assay [5] (setting [9]) came to 12.6 µM. Besides, the IC50 in assay [5] (setting [10]) turned out to be 4 µM. For the same molecule, in assay [6] (setting [11]), the IC50 came out at 17.7 µM. In addition, in assay [6] (setting [12]), the IC50 is 14.1 µM.
